Experimental data reported in US9340544B2, “Purinyl derivatives and their use as potassium channel modulators” (NeuroSearch A/S, priority 2007, dated 2016).

Molecular target: T1, hSK3 channels (Homo sapiens, UniProt Q9UGI6)
T1 construct: expressed in transfected cells; host or cells: HEK293
Test: Whole-cell patch-clamp recording of ionic current through SK channels (subtype 3) in HEK293 cells expressing hSK3
Format: cell-based
Conditions: SK3 activation
Procedure: The ionic current through small-conductance Ca^2+-activated K^+ channels (SK channels, subtype 3) is recorded using the whole-cell configuration of the patch-clamp technique in a classic patch-clamp set-up using HEK293 tissue culture cells expressing hSK3 channels as described in e.g. WO 2006/100212.
The SC100 value determined is defined as the Stimulating Concentration required for increasing the baseline current by 100%.

Row | The SC100 (Stimulating Concentration required for increasing the baseline current by 100%) | SMILES
1 | 0.2 µM | Cc1cc(CO)n(-c2nc(Nc3ccc(Cl)cc3)c3ncn(C)c3n2)n1 [Compound 13.1, {2-[6-(4-Chloro-phenylamino)-9-methyl-9H-purin-2-yl]-5-methyl-2H-pyrazol-3-yl}-methanol]
2 | 0.2 µM | Cc1cc(C)n(-c2nc(Nc3ccccc3)c3nc[nH]c3n2)n1 [Compound 14.1, [2-(3,5-Dimethyl-pyrazol-1-yl)-9H-purin-6-yl]-phenyl-amine]
3 | 0.4 µM | COCCn1cnc2c(Nc3ccccc3)nc(-n3nc(C)cc3C)nc21 [Compound 15.1, [2-(3,5-Dimethyl-pyrazol-1-yl)-9-(2-methoxy-ethyl)-9H-purin-6-yl-]phenyl-amine]

The remaining lines, values behind:

Row | SMILES | The SC100 (Stimulating Concentration required for increasing the baseline current by 100%)
4 | CCn1cnc2c(Nc3ccc(Cl)cc3)nc(-n3nc(C)cc3C)nc21 [Compound 6.4, (4-Chloro-phenyl)-[2-(3,5-dimethyl-pyrazol-1-yl)-9-ethyl-9H-purin-6-yl]-amine] | 0.01 µM
5 | Cc1cc(C)n(-c2nc(Nc3ccc(F)cc3)c3ncn(C)c3n2)n1 [Compound 9.1, [2-(3,5-Dimethyl-pyrazol-1-yl)-9-methyl-9H-purin-6-yl]-(4-fluoro-phenyl)-amine] | 0.05 µM
6 | Cc1cc(C)n(-c2nc(Nc3ccc(Cl)nc3)c3ncn(C)c3n2)n1 [Compound 9.7, (6-Chloro-pyridin-3-yl)-[2-(3,5-dimethyl-pyrazol-1-yl)-9-methyl-9H-purin-6-yl]-amine] | 0.4 µM
7 | Cc1cc(C)n(-c2nc(Nc3ccc([N+](=O)[O-])cc3)c3ncn(C)c3n2)n1 [Compound 9.8, [2-(3,5-Dimethyl-pyrazol-1-yl)-9-methyl-9H-purin-6-yl]-(4-nitro-phenyl)-amine] | 0.2 µM
8 | Cc1cc(C)n(-c2nc(NCCc3ccccc3)c3ncn(C)c3n2)n1 [Compound 9.11, [2-(3,5-Dimethyl-pyrazol-1-yl)-9-methyl-9H-purin-6-yl]-phenethyl-amine] | 0.2 µM
9 | CCc1cc(CC)n(-c2nc(Nc3ccc(Cl)cc3)c3ncn(C)c3n2)n1 [Compound 9.14, (4-Chloro-phenyl)-[2-(3,5-diethyl-pyrazol-1-yl)-9-methyl-9H-purin-6-yl]-amine] | 0.6 µM
10 | Cc1nn(-c2nc(Nc3ccc(Cl)cc3)c3ncn(C)c3n2)c(C)c1Cl [Compound 9.16, [2-(4-Chloro-3,5-dimethyl-pyrazol-1-yl)-9-methyl-9H-purin-6-yl]-(4-chloro-phenyl)-amine] | 0.02 µM
11 | Cc1cc(-c2ccco2)nn1-c1nc(Nc2ccc(Cl)cc2)c2ncn(C)c2n1 [Compound 9.18, (4-Chloro-phenyl)-[2-(3-furan-2-yl-5-methyl-pyrazol-1-yl)-9-methyl-9H-purin-6-yl]-amine] | 1.0 µM
